PubChem BioAssay AID1259426 (Fisher Drug Discovery Resource Center, 2018)
Several values for one entry are separate records, joined by “and”; a condition that tells them apart may be missing. Identical values can stand only once. Activity calls are given as the source filed them.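 Rule for the calls: active = EC50 under a set limit in control cells lacking the mosquito receptor, marking a fluorescence artifact; inactive = the rest.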

target: HEK293 Galpha15/GCaMP6s without NPYLR7, calcium fluorescence; test: nonspecific activation in parental Galpha15/GCaMP6s cells – cell-based, HEK293 lacking NPYLR7, counter-screen for mosquito NPYLR7 agonist project, dose response (AID 1259426);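 note: potency for a rise in fluorescence over baseline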

Row | Compound | EC50
1 | CCN(CC)C1=CC2=CC(=C(C#N)C#N)CCC2CC1 (stereo not drawn) | < 0.039 µM
2 | Nc1nc(Cl)nc2c1ncn2[C@@H]1O[C@H](COP(=O)(O)OP(=O)(O)OP(=O)(O)O)[C@H](O)C1O (stereo partly drawn) | > 20 µM (inactive)
3 | Cc1ccc(C(=O)C=Cc2ccc(N(C)C)cc2)o1 | < 0.039 µM
4 | Cc1cc(C=C2Sc3ccccc3N2C)cc(C)[n+]1Cc1ccncc1 | 18.9 µM
5 | COc1ccc(OC)c(CCNc2nc3cnc(-c4ccc(Cl)cc4)cc3n2C)c1 | > 20 µM (inactive)
6 | CCOc1cc(/C=C2\SC(=S)N(NC(=O)c3ccccc3O)C2=O)ccc1O | > 20 µM (inactive)
7 | CCOC(=O)C1=C(C)NC(C)=C(C(=O)OCC)C1c1cc(Cl)ccc1OC(F)F | 14.7 µM
8 | COc1ccccc1N=c1oc2cc(O)ccc2cc1-c1nc2ccccc2[nH]1 | 0.805 µM
9 | COc1ccc(CCN2COc3ccc4c(c3C2)O/C(=C\c2cccnc2)C4=O)cc1 | > 20 µM (inactive)
10 | COc1ccc(OC)c(CCNc2nc3cnc(-c4cccc5ccccc45)cc3n2C)c1 | > 20 µM (inactive)
11 | OCCN(CCO)c1nc(N2CCCCC2)c2nc(N(CCO)CCO)nc(N3CCCCC3)c2n1 | 3.58 µM and 1.94 µM
12 | O=c1cc(C(F)(F)F)c2ccc(O)cc2o1 | 6.31 µM
13 | COc1cc(C=C(C#N)S(=O)(=O)c2ccc(Cl)cc2)cc(Cl)c1O | > 20 µM (inactive)
14 | Fc1cc(F)cc(C2C=C(c3ccco3)Nc3ncnn32)c1 (stereo not drawn) | 8.31 µM
15 | CC(=O)Oc1ccc(Cn2c(C)c(C(=O)NCc3ccc(C#N)cc3)sc2=O)cc1 | > 20 µM (inactive)
16 | Cc1cc(O)c(CN2CCCCC2)c2c1C(=O)/C(=C/c1cc3ccccc3o1)O2 | 18.5 µM
17 | CCC(CO)[n+]1c(C)cc(C=C2Sc3ccccc3N2Cc2ccccc2)cc1C (stereo not drawn) | > 20 µM (inactive)
18 | COc1cc(/C=C2\C(=N)N3N=CSC3=NC2=O)cc(Br)c1OC(=O)c1ccco1 | 10 µM
19 | CN1CCc2c(sc(NC(=O)Cc3ccccc3)c2-c2nc3ccccc3s2)C1 | > 20 µM (inactive)
20 | COc1cc(/C=C/c2nc3ccccc3o2)cc(Cl)c1O | 1.7 µM
21 | COc1ccc(-c2cccc(-c3ccc(NC(=O)c4oc5ccccc5c4C)cc3)n2)cc1 | > 20 µM (inactive)
22 | COc1ccc2nc(C=Cc3cc(Br)c(O)c(OC)c3)sc2c1 | > 20 µM (inactive)
23 | CC1N(C)c2ccc(C=Cc3cc[n+](C)cc3)cc2C1(C)C (stereo not drawn) | 8.49 µM
24 | O=C(C1=NN(c2ccccc2)C2C(=O)N(c3ccccc3)C(=O)C12)c1ccccc1 (stereo not drawn) | > 20 µM (inactive)
25 | Cc1ccc(C)c(C2C(C#N)C(=N)SC(=N)C2C#N)c1 (stereo not drawn) | 11.9 µM

Row | Compound | EC50
26 | COC(=O)c1cc(N)c(/C=C/c2cccs2)s1 | 0.577 µM
27 | CCCC[n+]1c(C)cc(C=C2Sc3ccccc3N2CC)cc1C | 18.7 µM
28 | Cc1ccc(N2C(=O)NC(=O)/C(=C\c3cccs3)C2=O)cc1 | > 20 µM (inactive)
29 | CCOC(=O)N1CCN(c2ccc(/C=C(\C#N)c3nc4ccccc4n3C)o2)CC1 | > 20 µM (inactive)
30 | CCCN1CCc2c(sc3c2c(NC(CC)CO)nc2nnnn23)C1 (stereo not drawn) | > 20 µM (inactive)
31 | CN(Cc1cnc2ccccc2n1)C(=O)C1CC2(CCNCC2)CN1 (stereo not drawn) | > 20 µM (inactive)
32 | CC(C)C(C(=O)O)N1C(=O)/C(=C/c2ccc(N(C)C)cc2)SC1=S (stereo not drawn) | 12 µM
33 | CCOC(=O)c1c(-c2ccccc2)csc1N=Cc1nc(-c2ccco2)oc1O | > 20 µM (inactive)
34 | COCCCN1COc2ccc3c(c2C1)O/C(=C\c1cc(OC)c(OC)c(OC)c1)C3=O | 11.4 µM
35 | Nc1ccc2c3c(cccc13)C(=O)NC2=O | 2.07 µM
36 | CC(C)c1nc(NC(=O)c2[nH]ncc2Br)n(C)n1 | 1.5 µM
37 | OC=c1ccc2cccc3nc(C(F)(F)F)nc1c23 | 11.2 µM
38 | COc1ccc(C2=NN(C(=O)CN3CCOCC3)C(c3nc4ccccc4[nH]3)C2)cc1 (stereo not drawn) | > 20 µM (inactive)
39 | CC(C)C(=O)Nc1sc2c(c1-c1nc3ccccc3s1)CCN(C(C)C)C2 | > 20 µM (inactive)
40 | CC(=O)NCCc1ccc(O)c(O)c1 | 0.0722 µM
41 | CCN1CCN(Cc2c(O)cc(C)c3c2O/C(=C\c2ccco2)C3=O)CC1 | 9.72 µM
42 | NCCNc1ccc2c3c(cccc13)C(=O)N(c1ccc(Cl)cc1)C2=O | 0.47 µM
43 | Oc1oc(-c2ccccc2Br)nc1C=Nc1ccccc1 | 10.6 µM
44 | N#CC(C#N)=C1C=C2C=C(N3CCc4ccccc4C3)CCC2CC1 (stereo not drawn) | > 20 µM (inactive)
45 | COCCn1c(C)cn2c3c(=O)n(Cc4ccc(Cl)cc4)c(=O)n(C)c3nc12 | > 20 µM (inactive)
46 | O=C(O)c1csc(CSc2nnc(-c3ccncc3)n2-c2cccc(C(F)(F)F)c2)n1 | > 20 µM (inactive)
47 | COc1ccc(OC)c(CCNc2nc3cnc(-c4cc(OC)c(OC)c(OC)c4)cc3n2C)c1 | > 20 µM (inactive)
48 | Cc1oc(-c2cccc(NC(=O)CC(C)C)c2)nc1CNC(=O)Cc1cc(F)cc(F)c1 | > 20 µM (inactive)
49 | COc1ccc(Cl)cc1Nc1nnc(-c2cc3c(ccc4ccccc43)oc2=O)s1 | > 20 µM (inactive)
50 | N#CC(=Cc1c(F)c(F)c(F)c(F)c1F)c1ccccn1 | > 20 µM (inactive)

Row | Compound | EC50
51 | CCOC(=O)c1cc(O)c(C(=O)OCC)s1 | > 20 µM (inactive)
52 | Cc1ccc(Nc2nc(Nc3cccc(F)c3)nc3nccnc23)c(C)c1 | > 20 µM (inactive)
53 | CCCCCN=C(N)NN=Cc1c[nH]c2ccc(OC)cc12 | > 20 µM (inactive)
54 | CCCc1nn2c(N)c(C=C3C=C(Cl)C(=O)C(Cl)=C3)c(=O)nc2s1 | > 20 µM (inactive)
55 | CCN1CCc2c(sc(NC(=O)COc3ccccc3)c2-c2nc3ccccc3s2)C1 | > 20 µM (inactive)
56 | CCN(CC)c1ccc(/C=C2\SC(=S)N(CC(=O)O)C2=O)c(O)c1 | 1.15 µM
57 | O=C1SC(Nc2ccc(Br)cc2)C(=O)N1c1ccccc1 (stereo not drawn) | 17.9 µM
58 | O=C(O)CN1C(=O)/C(=C\c2cc([N+](=O)[O-])cc(Br)c2O)SC1=S | 1.07 µM
59 | O=C1/C(=C/c2ccc3c(c2)OCO3)Oc2c1ccc1c2CN(CC2CCCO2)CO1 (stereo not drawn) | 8.39 µM
60 | CCOc1cc(/C=C2/Oc3cc(O)ccc3C2=O)cc(Cl)c1OCC(=O)N(C)C | > 20 µM (inactive)
61 | CSc1nnc2c(n1)OC(c1ccc(OC(=O)c3ccc(Br)cc3)cc1)Nc1ccccc1-2 (stereo not drawn) | > 20 µM (inactive)
62 | Cc1ccc(C2=NN(C(=O)CN3CCN(C)CC3)C(c3ccccc3Cl)C2)cc1 (stereo not drawn) | > 20 µM (inactive)
63 | COc1ccc(-c2cnn(CCC(N)=O)c2)c(C)c1 | > 20 µM (inactive)
64 | CCCCCn1c(=O)c2c(nc3n2CCN3c2cc(C)cc(C)c2)n(C)c1=O | > 20 µM (inactive)
65 | COCCCN(Cc1ccc(C(C)(C)C)cc1)Cc1cccn1Cc1cccc(C)c1 | > 20 µM (inactive)
66 | CC1(C)OC2OC(C(O)c3cc(O)c4c(c3O)C(=O)c3ccccc3C4=O)C(C)(O)C2O1 (stereo not drawn) | 1.86 µM
67 | Cc1cccc(N2C(=O)NC(=O)/C(=C/c3cn(C)c4ccccc34)C2=O)c1 | > 20 µM (inactive)
68 | CCOc1cccc(C=C2Oc3cc(O)ccc3C2=O)c1OC | > 20 µM (inactive)
69 | Nc1ccc(Oc2cc(N)cc(Oc3ccccc3)c2)cc1 | 18.3 µM
70 | CCOc1cc(/C=C2\C(=N)N3N=CSC3=NC2=O)cc(Br)c1OC(=O)c1ccccc1 | 3.04 µM
71 | NC(=NC1C2CC3CC(C2)CC1C3)Nc1ccc(I)cc1 (stereo not drawn) | 14.1 µM
72 | O=[N+]([O-])c1cc(S(=O)(=O)Nc2cc(Cl)ccc2F)ccc1F | > 20 µM (inactive)
73 | COc1ccc(N2C(=O)/C(=C\c3ccc[nH]3)N(C)C2=S)c([N+](=O)[O-])c1 | > 20 µM (inactive)
